How the values were obtained:
[1] = target: T1, hP2X3 (human Purinergic P2X receptors subtype 3), clone A (Homo sapiens, UniProt P56373); experiment: hP2X3 FLIPR calcium (Fluo-4) antagonist assay, clone A; settings: Human P2X3 FLIPR Clone A Mean IC50 (nM), RLE cells expressing hP2X3 clone A (AB016608); agonist 500 nM α,β-methylene-ATP
T1 sequence (P56373 1-397): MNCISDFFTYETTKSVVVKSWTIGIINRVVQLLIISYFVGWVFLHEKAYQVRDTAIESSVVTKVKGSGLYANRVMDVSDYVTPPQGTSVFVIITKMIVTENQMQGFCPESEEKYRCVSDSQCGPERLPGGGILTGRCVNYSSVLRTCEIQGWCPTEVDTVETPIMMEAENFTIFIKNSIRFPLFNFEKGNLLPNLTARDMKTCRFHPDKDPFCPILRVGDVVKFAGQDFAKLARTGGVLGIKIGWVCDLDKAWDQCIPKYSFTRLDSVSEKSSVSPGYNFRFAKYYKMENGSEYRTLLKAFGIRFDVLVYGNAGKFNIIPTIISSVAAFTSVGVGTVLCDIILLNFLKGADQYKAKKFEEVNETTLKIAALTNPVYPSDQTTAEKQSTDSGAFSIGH
Experimental: (§1) The assay used a calcium indicator dye (Fluo-4) that emits fluorescence, the intensity of which is related to the concentration of calcium that entered the cell when P2X3 was activated and the channel opened. Activation of hP2X3 or rat P2X3 and rat P2X2/3 (from the coexpression of rat P2X3 and rat P2×2) is elicited the by P2X3 agonist α,β methylene-ATP (Sigma M6517), and the resulting fluorescence is measured with a FLIPR II™ instrument (Molecular Devices). Compounds are tested for their ability to inhibit the agonist-induced fluorescent signal.
(§2) For the rat P2X2/3 HEK-TREX cells, induction of the rat P2X3 expression is used to generate the rat P2X2/3 channels in HEK-TREX cells and performed by addition of 1 μg/mL tetracycline (Invitrogen) 24 h prior to compounds testing to the HEK-TREX expressing the rat P2X2 constitutively. On the day of the experiment, the cells and test compounds are prepared as follows. […] After preparing the compounds, the medium is removed from the cell plates by inversion. A loading solution of 30 μL assay buffer containing 4 μM of the calcium indicator dye FLUO-4 AM (Molecular Probes F14202) is added to each well using a Multidrop (Labsystems). […] The incubation is terminated by washing the cells four times in assay buffer using a Skatron Embla (Molecular Devices), and 25 μL of assay buffer was left in each well. Cell plates are then transferred to the FLIPR. Experiments are initiated by measuring a baseline fluorescence reading for 10 seconds, followed by the addition of 12.5 μL of cpds and data sampling for a total 280 seconds. The experiments are terminated by addition of 12.5 μL of a reference agonist (500 nM α,β-methylene-ATP) or buffer, producing a final assay volume of 50 μL followed by data sampling for an additional 280 seconds.
(§3) In P2X3 antagonist experiments (human and rat assays) data are analysed as normalised maximal peak fluorescence monitored following agonist addition and calculated as percent of relative fluorescent counts from control agonist. The dose-response antagonist inhibition curves are analyzed in a 4-parameter sigmoidal fit using a non-linear curve-fitting program (XLfit version 5.0.6, ID Business Solutions Limited, Guildford, UK).

[2] = target: T2, hP2X3 (human Purinergic P2X receptors subtype 3), clone B (Homo sapiens, UniProt P56373); experiment: hP2X3 FLIPR calcium (Fluo-4) antagonist assay, clone B; settings: Human P2X3 FLIPR Clone B IC50 (nM), RLE cells expressing hP2X3 clone B (NM_002559); agonist 500 nM α,β-methylene-ATP
T2 sequence (P56373 1-397): T1 sequence (P56373 1-397)
Experimental: as §1, §2, §3

CC(=O)N1CCN(c2nc(N[C@H](C)c3ccc(C(F)(F)F)cc3F)c3c(n2)C(=O)N(C(C)C)C3)CC1 [Example 186, (R)-2-(4-acetylpiperazin-1-yl)-4-(1-(2-fluoro-4-(trifluoromethyl)phenyl)ethylamino)-6-isopropyl-5H-pyrrolo[3,4-d]pyrimidin-7(6H)-one]
IC50 [1]: 138 nM
IC50 [2]: 100 nM

CC(=O)N1CCN(c2nc(N[C@H](C)c3cccc(C(F)(F)F)c3F)c3c(n2)C(=O)N(C(C)C)C3)CC1 [Example 187, (R)-2-(4-acetylpiperazin-1-yl)-4-(1-(2-fluoro-3-(trifluoromethyl)phenyl)ethylamino)-6-isopropyl-5H-pyrrolo[3,4-d]pyrimidin-7(6H)-one]
IC50 [1]: 117 nM
IC50 [2]: 96 nM

CC(=O)N1CCN(c2nc(N[C@H](C)c3ccc(F)c(C(F)(F)F)c3)c3c(n2)C(=O)N(C(C)C)C3)CC1 [Example 188, (R)-2-(4-acetylpiperazin-1-yl)-4-(1-(4-fluoro-3-(trifluoromethyl)phenyl)ethylamino)-6-isopropyl-5H-pyrrolo[3,4-d]pyrimidin-7(6H)-one]
IC50 [1]: 174 nM
IC50 [2]: 140 nM

CCOc1ccc([C@@H](CO)Nc2nc(N3CCN(C(C)=O)CC3)nc3c2CN(C(C)C)C3=O)cc1 [Example 189, (S)-2-(4-acetylpiperazin-1-yl)-4-(1-(4-ethoxyphenyl)-2-hydroxyethylamino)-6-isopropyl-5H-pyrrolo[3,4-d]pyrimidin-7(6H)-one]
IC50 [1]: 76.6 nM
IC50 [2]: 79 nM

CC(=O)N1CCN(c2nc(N[C@H](C)c3ccc(OC(C)C)c(F)c3)c3c(n2)C(=O)N(C(C)C)C3)CC1 [Example 190, (R)-2-(4-acetylpiperazin-1-yl)-4-(1-(3-fluoro-4-isopropoxyphenyl)ethylamino)-6-isopropyl-5H-pyrrolo[3,4-d]pyrimidin-7(6H)-one]
IC50 [1]: 47.2 nM
IC50 [2]: 44 nM

CC(=O)N1CCN(c2nc(N[C@H](C)c3ccc(OC4CCC4)cc3)c3c(n2)C(=O)N(C(C)C)C3)CC1 [Example 191, (R)-2-(4-acetylpiperazin-1-yl)-4-(1-(4-cyclobutoxyphenyl)ethylamino)-6-isopropyl-5H-pyrrolo[3,4-d]pyrimidin-7(6H)-one]
IC50 [1]: 81.3 nM
IC50 [2]: 62 nM

CCOc1ccc(CC(C)(C)Nc2nc(N3CCN(C(C)=O)CC3)nc3c2CN(C(C)C)C3=O)cc1 [Example 198, 2-(4-acetylpiperazin-1-yl)-4-(1-(4-ethoxyphenyl)-2-methylpropan-2-ylamino)-6-isopropyl-5H-pyrrolo[3,4-d]pyrimidin-7(6H)-one]
IC50 [1]: 1230 nM
IC50 [2]: 640 nM

CC(=O)N1CCN(c2nc(NCc3nc4ccccc4s3)c3c(n2)C(=O)N(C(C)C)C3)CC1 [Example 199, 2-(4-acetylpiperazin-1-yl)-4-(benzo[d]thiazol-2-ylmethylamino)-6-isopropyl-5H-pyrrolo[3,4-d]pyrimidin-7(6H)-one]
IC50 [1]: 5050 nM
IC50 [2]: 2300 nM

CC(C)N1Cc2c(nc(N3CCN(C)C(=O)C3)nc2N(C)Cc2cc3ccccc3cn2)C1=O [Example 200, 6-isopropyl-4-((isoquinolin-3-ylmethyl)(methyl)amino)-2-(4-methyl-3-oxopiperazin-1-yl)-5H-pyrrolo[3,4-d]pyrimidin-7(6H)-one]
IC50 [1]: 501 nM
IC50 [2]: 790 nM

CCOc1ccc([C@@H](C)Nc2nc(N3CCN(C)C(=O)C3)nc3c2CN(C(C)C)C3=O)cc1F [Example 201, (R)-4-(1-(4-ethoxy-3-fluorophenyl)ethylamino)-6-isopropyl-2-(4-methyl-3-oxopiperazin-1-yl)-5H-pyrrolo[3,4-d]pyrimidin-7(6H)-one]
IC50 [1]: 723 nM
IC50 [2]: 410 nM

CCOc1ccc([C@@H](C)Nc2nc(N3CCN(C(C)=O)CC3)nc3c2CN(C(C)C)C3=O)c(OC)c1 [Example 202, (R)-2-(4-acetylpiperazin-1-yl)-4-(1-(4-ethoxy-2-methoxyphenyl)ethylamino)-6-isopropyl-5H-pyrrolo[3,4-d]pyrimidin-7(6H)-one]
IC50 [1]: 47 nM
IC50 [2]: 51 nM

COc1cc(OC(C)C)ccc1[C@@H](C)Nc1nc(N2CCN(C(C)=O)CC2)nc2c1CN(C(C)C)C2=O [Example 203, (R)-2-(4-acetylpiperazin-1-yl)-4-(1-(4-isopropoxy-2-methoxyphenyl)ethylamino)-6-isopropyl-5H-pyrrolo[3,4-d]pyrimidin-7(6H)-one]
IC50 [1]: 65.8 nM
IC50 [2]: 62 nM

CCOc1ccc([C@@H](C)Nc2nc(N3CCN(C(C)=O)CC3)nc3c2CN(C(C)C)C3=O)c(F)c1 [Example 204, (R)-2-(4-acetylpiperazin-1-yl)-4-(1-(4-ethoxy-2-fluorophenyl)ethylamino)-6-isopropyl-5H-pyrrolo[3,4-d]pyrimidin-7(6H)-one]
IC50 [1]: 50.4 nM
IC50 [2]: 38 nM

CC(=O)N1CCN(c2nc(NCc3cc4ccccc4c(C)n3)c3c(n2)C(=O)N(C(C)C)C3)CC1 [Example 259, 2-(4-acetylpiperazin-1-yl)-6-isopropyl-4-((1-methylisoquinolin-3-yl)methylamino)-5H-pyrrolo[3,4-d]pyrimidin-7(6H)-one]
IC50 [1]: 27.2 nM
IC50 [2]: 16 nM

CCOc1ccc([C@@H](C)N(C)c2nc(N3CCN(C(C)=O)CC3)nc3c2CN(C(C)C)C3=O)cc1F [Example 262, (R)-2-(4-acetylpiperazin-1-yl)-4-((1-(4-ethoxy-3-fluorophenyl)ethyl)(methyl)amino)-6-isopropyl-5H-pyrrolo[3,4-d]pyrimidin-7(6H)-one]
IC50 [1]: 84.5 nM
IC50 [2]: 85 nM

CC(=O)N1CCN(c2nc3c(c(N(C)Cc4cc5ccccc5c(C)n4)n2)CN(C(C)C)C3=O)CC1 [Example 263, 2-(4-acetylpiperazin-1-yl)-6-isopropyl-4-(methyl((1-methylisoquinolin-3-yl)methyl)amino)-5H-pyrrolo[3,4-d]pyrimidin-7(6H)-one]
IC50 [1]: 85 nM
IC50 [2]: 94 nM

CC(=O)N1CCN(c2nc3c(c(N4CCCC4c4ccc(F)cc4)n2)CN(C(C)C)C3=O)CC1 (centres unmarked) [Example 292, 2-(4-acetylpiperazin-1-yl)-4-[2-(4-fluorophenyl)pyrrolidin-1-yl]-6-(1-methylethyl)-5,6-dihydro-7H-pyrrolo[3,4-d]pyrimidin-7-one]
IC50 [1]: 4950 nM
IC50 [2]: 3600 nM

COCc1ccc(CC2CCCN2c2nc(N3CCN(C(C)=O)CC3)nc3c2CN(C(C)C)C3=O)cc1 (centres unmarked) [Example 293, 2-(4-acetylpiperazin-1-yl)-4-{2-[4-(methoxymethyl)benzyl]pyrrolidin-1-yl}-6-(1-methylethyl)-5,6-dihydro-7H-pyrrolo[3,4-d]pyrimidin-7-one]
IC50 [1]: 1590 nM
IC50 [2]: 1400 nM

CC(=O)c1ccc(CC2CCCN2c2nc(N3CCN(C(C)=O)CC3)nc3c2CN(C(C)C)C3=O)cc1 (centres unmarked) [Example 294, 4-[2-(4-acetylbenzyl)pyrrolidin-1-yl]-2-(4-acetylpiperazin-1-yl)-6-(1-methylethyl)-5,6-dihydro-7H-pyrrolo[3,4-d]pyrimidin-7-one]
IC50 [1]: 1840 nM
IC50 [2]: 980 nM

COc1ccc(C2CCCN2c2nc(N3CCN(C(C)=O)CC3)nc3c2CN(C(C)C)C3=O)cc1C (centres unmarked) [Example 295, 2-(4-acetylpiperazin-1-yl)-4-[2-(4-methoxy-3-methylphenyl)pyrrolidin-1-yl]-6-(1-methylethyl)-5,6-dihydro-7H-pyrrolo[3,4-d]pyrimidin-7-one]
IC50 [1]: 824 nM
IC50 [2]: 730 nM

CC(=O)N1CCN(c2nc3c(c(N4CCCC4c4ccc(C)cc4)n2)CN(C(C)C)C3=O)CC1 (centres unmarked) [Example 296, 2-(4-acetylpiperazin-1-yl)-6-(1-methylethyl)-4-[2-(4-methylphenyl)pyrrolidin-1-yl]-5,6-dihydro-7H-pyrrolo[3,4-d]pyrimidin-7-one]
IC50 [1]: 1190 nM
IC50 [2]: 1400 nM

CC(=O)N1CCN(c2nc3c(c(N4CCCC4c4ccc(Cl)c(Cl)c4)n2)CN(C(C)C)C3=O)CC1 (centres unmarked) [Example 297, 2-(4-acetylpiperazin-1-yl)-4-[2-(3,4-dichlorophenyl)pyrrolidin-1-yl]-6-(1-methylethyl)-5,6-dihydro-7H-pyrrolo[3,4-d]pyrimidin-7-one]
IC50 [1]: 322 nM
IC50 [2]: 300 nM

CC[C@H](C)N1Cc2c(NCc3cnc4ccccc4c3)nc(N3CCN(C(C)=O)CC3)nc2C1=O [Example 316, 2-(4-acetylpiperazin-1-yl)-6-[(1S)-1-methylpropyl]-4-[(quinolin-3-ylmethyl)amino]-5,6-dihydro-7H-pyrrolo[3,4-d]pyrimidin-7-one]
IC50 [1]: 35.5 nM
IC50 [2]: 28 nM

CC[C@H](C)N1Cc2c(nc(N3CCN(C(C)=O)CC3)nc2N(C)Cc2cnc3ccccc3c2)C1=O [Example 319, 2-(4-acetylpiperazin-1-yl)-6-[(1S)-1-methylpropyl]-4-[methyl(quinolin-3-ylmethyl)amino]-5,6-dihydro-7H-pyrrolo[3,4-d]pyrimidin-7-one]
IC50 [1]: 53.6 nM
IC50 [2]: 47 nM

CCOc1ccc([C@@H](C)Nc2nc(N3CCN(C(C)=O)CC3)nc3c2CN([C@@H](C)CC)C3=O)cc1F [Example 320, 2-(4-acetylpiperazin-1-yl)-4-{[(1R)-1-(4-ethoxy-3-fluorophenyl)ethyl]amino}-6-[(1S)-1-methylpropyl]-5,6-dihydro-7H-pyrrolo[3,4-d]pyrimidin-7-one]
IC50 [1]: 69.1 nM
IC50 [2]: 54 nM

Reference: patent US20090099195A1 (ASTRAZENECA AB, priority 2007, published 2009)
